In assay [1] the test system is Cdc2 (Cdk1) tyrosine 15 phosphorylation in WiDr cells. The assay is described as follows: Cdc2 (Cdk1) tyrosine 15-phosphorylation-inhibitory effect in gemcitabine-treated WiDr cells (ELISA). It counts as cell-based. Conditions: Homo sapiens, gemcitabine 100 nM 24 hours, then test compound with nocodazole 8 hours, read-out: Cdc2-Y15 Phosphorylation-Inhibitory Effect (WiDr, + gemcitabine) (EC50). The text has this:
(§1) Pharmaceutical Text 2 (Method of Determining Drug Potency in Cells (Cdc2 (Cdk1) Tyrosine 15-Phosphorylation-Inhibitory Effect))
(§2) Fetal bovine serum (FBS) was obtained from Morgate; media RPMI1640 and DMEM were from Invitrogen; camptothecin was from Sigma; gemcitabine was from Nippon Eli Lilly; nocodazole and protease inhibitor cocktail were from Sigma; rabbit anti-Cdc2 antibody and mouse anti-Cdc2 antibody were from Santa Cruz Biotechnology; rabbit anti-tyrosine 15-phosphorylated Cdc2 antibody and horseradish peroxidase-labeled anti-mouse IgG antibody were from Cell Signaling Technology; sure blue reserve TMB peroxidase substrate was from Kirkegaard and Perry Laboratories.
(§3) Human non-small cell lung cancer cells (NCI-H1299) and human colon cancer cells (WiDr) were obtained from American Type Culture Collection (ATCC).
(§4) c) Method of Effect Determination:
In the method of using WiDr cells, the cells were suspended in DMEM containing 10% FBS, and the cell suspension was applied to a 96-well Nunclondelta-processed plastic plate in an amount of 2000 cells/100 μL/well, in which the cells were incubated overnight in 5% CO2-95% air at 37° C. Gemcitabine was dissolved in PBS, and diluted with DMEM containing 10% FBS, and then this was applied to the plate on which the cells had been previously sowed, in an amount of 50 μL/well in such a manner that the final concentration of gemcitabine could be 100 nM. Then, the cells were incubated for 24 hours at 37° C. in 5% CO2-95% air. The test compound was stepwise diluted with DMSO, then diluted with 1200 nM nocodazole-containing DMEM containing 10% FBS, and applied to the plate on which the gemcitabine-treated cells had been sowed, in an amount of 50 μL/well. The cells were incubated for 8 hours at 37° C. in 5% CO2-95% air, then the culture was removed, and a cytolytic buffer was added to the plate in an amount of 100 μL/well, shaken at 4° C. for 2 hours, then frozen at −80° C., and melted to give a cell solution. Cdc2 and tyrosine 15-phosphorylated Cdc2 in the cell solution were determined through ELISA, and the ratio of tyrosine 15-phosphorylated Cdc2 to Cdc2 was calculated to obtain the 50% phosphorylation-inhibitory concentration of the test compound to the cells (EC50, nM). Cdc2 was determined through ELISA as follows: A rabbit anti-Cdc2 antibody solution, which had been diluted 200-fold with 50 mM carbonate-bicarbonate buffer (pH 9.6), was applied to a 96-well maxisorp plastic plate in an amount of 50 μL/well, and statically kept overnight at 4° C. so as to fix the antibody on the plate. Next, this was washed three times with PBS, and 5% BSA/PBS was added thereto in an amount of 300 μL/well, and statically kept at room temperature for 2 hours, and then again washed three times with PBS. A mouse anti-Cdc2 antibody solution that had been diluted 100-fold with 1% BSA/TBS-T was added to it in an amount of 50 μL/well, and the cell solution was added thereto in an amount of 10 μL/well and statically kept overnight at 4° C. Next, this was washed three times with 0.1% BSA/TBS-T, and then a horseradish peroxidase-labeled anti-mouse IgG antibody solution that had been diluted 2000-fold with 1% BSA/TBS-T was added thereto in an amount of 70 μL/well, and statically kept at room temperature for 3 hours. Finally, this was washed five times with 0.1% BSA/TBS-T, then a substrate of sure blue reserve TMB peroxidase was added to it in an amount of 100 μL/well, and left for coloration in a dark place at room temperature for 15 minutes. Then, 1 M hydrochloric acid was added to it in an amount of 100 μL/well to stop the reaction, and this was analyzed through colorimetry. […]

The test system of assay [2] is Cdc2 (Cdk1) tyrosine 15 phosphorylation in NCI-H1299 cells. The experiment in a line: Cdc2 (Cdk1) tyrosine 15-phosphorylation-inhibitory effect in camptothecin-treated NCI-H1299 cells (ELISA). It counts as cell-based. The conditions noted are these: Homo sapiens, camptothecin 200 nM 16 hours, then test compound with nocodazole 8 hours, read-out: Cdc2-Y15 Phosphorylation-Inhibitory Effect (H1299, + camptothecin) (EC50).
From the text: as §1, §2, §3, §4
In the method of using NCI-H1299 cells, the cells were suspended in RPMI1640 containing 10% FBS, and the cell suspension was applied to a 96-well Nunclondelta-processed plastic plate (bought from Nunc), in an amount of 2000 cells/100 μL/well, in which the cells were incubated overnight in 5% CO2-95% air at 37° C. Camptothecin was dissolved in dimethylsulfoxide (DMSO), and diluted with RPMI1640 containing 10% FBS, and then this was applied to the plate on which the cells had been previously sowed, in an amount of 50 μL/well in such a manner that the final concentration of camptothecin could be 200 nM. Then, the cells were incubated for 16 hours at 37° C. in 5% CO2-95% air. The test compound was stepwise diluted with DMSO, then diluted with 4000 nM nocodazole-containing RPMI1640 containing 10% FBS, and applied to the plate on which the camptothecin-treated cells had been sowed, in an amount of 50 μL/well. The cells were incubated for 8 hours at 37° C. in 5% CO2-95% air, then the medium was removed, and a cytolytic buffer was added to the plate in an amount of 100 μL/well, shaken at 4° C. for 2 hours, then frozen at −80° C., and melted to give a cell solution. Cdc2 and tyrosine 15-phosphorylated Cdc2 in the cell solution were determined through enzyme-linked immunosorbent assay (ELISA), and the ratio of tyrosine 15-phosphorylated Cdc2 to Cdc2 was calculated to obtain the 50% phosphorylation-inhibitory concentration of the test compound to the cells (EC50, nM). The cytolytic buffer used herein is an aqueous solution containing 20 mM Hepes (pH 7.5), 150 mM sodium chloride, 1 mM disodium ethylenediaminetetraacetate, 0.1% polyoxyethylene (10) octylphenyl ether, 1% protease inhibitor cocktail, 1 mM dithiothreitol, 2 mM sodium orthovanadate, 10 mM sodium fluoride and 10 mM glycerol diphosphate. Cdc2 was determined through ELISA as follows: A rabbit anti-Cdc2 antibody solution, which had been diluted 200-fold with 50 mM carbonate-bicarbonate buffer (pH 9.6), was applied to a 96-well maxisorpimmuno plate (bought from Nunc), in an amount of 50 μL/well, and statically kept overnight at 4° C. so as to fix the antibody on the plate. Next, this was washed three times with phosphate-buffered saline (PBS), and 5% bovine serum albumin-containing PBS (5% BSA/PBS) was added thereto in an amount of 300 μL/well, and statically kept at room temperature for 2 hours, and then again washed three times with PBS. A mouse anti-Cdc2 antibody solution that had been diluted 100-fold with 0.05% polyoxyethylene sorbitan monolaurate and 1% BSA-containing Tris-HCl-buffered saline (1% BSA/TBS-T) was added to it in an amount of 50 μL/well, and the cell solution was added thereto in an amount of 5 μL/well and statically kept overnight at 4° C. Next, this was washed three times with 0.05% polyoxyethylene sorbitan monolaurate and 0.1% BSA-containing Tris-HCl-buffered saline (0.1% BSA/TBS-T), and then a horseradish peroxidase-labeled anti-mouse IgG antibody solution that had been diluted 2000-fold with 1% BSA/TBS-T was added thereto in an amount of 70 μL/well, and statically kept at room temperature for 3 hours. […]

With `C=CCn1c(=O)c2cnc(Nc3ccc(N4CCN(C)CC4)c(CO)c3)nc2n1-c1ccsc1` [Example 3, 2-allyl-6-{[3-(hydroxymethyl)-4-(4-methylpiperazin-1-yl)phenyl]amino}-1-(3-thienyl)-1,2-dihydro-3H-pyrazolo[3,4-d]pyrimidin-3-one], the values for the EC50 in assay [1] and in assay [2] were 130 nM and 61 nM, respectively.
The corresponding values for `C=CCn1c(=O)c2cnc(Nc3ccc(N4CCN(C)CC4)cc3)nc2n1-c1cccc(N2CCN(C)C2=O)n1` [Example 148, 2-allyl-1-[6-(3-methyl-2-oxoimidazolidin-1-yl)pyridin-2-yl]-6-{[4-(4-methylpiperazin-1-yl)phenyl]amino}-1,2-dihydro-3H-pyrazolo[3,4-d]pyrimidin-3-one] are 86 nM and 79 nM.

(Values after patent publication US7935708B2, “Dihydropyrazolopyrimidinone derivatives” (MSD K.K., priority 2006, dated 2011).)
